Results: patent publication US20020049193A1, “N-linked sulfonamides of heterocyclic thioesters” (GPI NIL HOLDINGS, INC., priority 1996, published 2002)
Read-outs that look alike come from different tables or passages of the source.

Assays:
FKBP12 = FKBP12 (Homo sapiens, UniProt P62942); assay: Ki test procedure: inhibition of peptidyl-prolyl isomerase (rotamase) activity, chymotrypsin-coupled assay; type: biochemical; details: apparent Ki
Excerpt: The inhibition of the prolyl peptidyl cis-trans isomerase activity of FKBP may be measured as an indicator of this affinity.
The compounds of the invention are shown to inhibit peptidyl-prolyl isomerase (rotamase) activity and can be evaluated by known methods described in the literature (Harding, et al., Nature, 1989, 341:758-760; Holt et al. J. Am. Chem. Soc., 115: 9923-9938). The cis-trans isomerization of an alanine-proline bond in a model substrate, N-succinyl-Ala-Ala-Pro-Phe-p-nitroanilide, is monitored spectrophotometrically in a chymotrypsin-coupled assay, which releases para-nitroanilide from the trans form of the substrate. The inhibition of this reaction caused by the addition of different concentrations of inhibitor is determined, and the data is analyzed as a change in first-order rate constant as a function of inhibitor concentration to yield the apparent Ki values.
In a plastic cuvette are added […] of ice cold assay buffer (25 mM HEPES, pH 7.8, 100 mM NaCl), 10 mL of FKBP (2.5 mM in 10 mM Tris-Cl pH 7.5, 100 mM NaCl, 1 mM dithiothreitol), 25 mL of chymotrypsin (50 mg/ml in 1 mM HCl) and […] of test compound at various concentrations in dimethyl sulfoxide. The reaction is initiated by the addition of 5 mL of substrate (succinyl-Ala-Phe-Pro-Phe-para-nitroanilide, 5 mg/mL in 2.35 mM LiCl in trifluoroethanol).
The absorbance at 390 nm versus time is monitored for 90 seconds using a spectrophotometer and the rate constants are determined from the absorbance versus time data files.
The data for these experiments for representative compounds are presented in Tables II(a) and II(b) under the column “Ki”.

[1] = test system: chick dorsal root ganglia; assay: Chick dorsal root ganglion cultures and neurite outgrowth; type: cell-based; details: Gallus gallus, 48 h; read-out: ED50 (the source's name)
Protocol: Dorsal root ganglia were dissected from chick embryos of ten day gestation. Whole ganglion explants were cultured on thin layer Matrigel-coated 12 well plates with Liebovitz L15 plus high glucose media supplemented with 2 mM glutamine and 10% fetal calf serum, and also containing 10 μM cytosine β-D arabinofuranoside (Ara C) at 37° C. in an environment containing 5% CO2. Twenty-four hours later, the DRGs were treated with various immunophilin ligands. Forty-eight hours after drug treatment, the ganglia were visualized under phase contrast or Hoffman Modulation contrast with a Zeiss Axiovert inverted microscope. Photomicrographs of the explants were made, and neurite outgrowth was quantitated. Neurites longer than the DRG diameter were counted as positive, with total number of neurites quantitated per each experimental condition. Three to four DRGs are cultured per well, and each treatment was performed in duplicate.
The data for these experiments for representative compounds are presented in Table II(c) under the column “ED50”.

[2] = test system: TH-positive dopaminergic neurons in the striatum; assay: MPTP model of Parkinson's Disease; type: in vivo; details: CD1 mice, MPTP 30 mg/kg i.p. 5 days, test compound 4 mg/kg s.c. 10 days, striatum at 18 days
Protocol: MPTP lesioning of dopaminergic neurons in mice is used as an animal model of Parkinson's Disease. Four week old male CD1 white mice are dosed i.p. with 30 mg/kg of MPTP for 5 days. Test compounds (4 mg/kg), or vehicle, are administered s.c. along with the MPTP for 5 days, as well as for an additional 5 days following cessation of MPTP treatment. At 18 days following MPTP treatment, the animals are sacrificed and the striata dissected and perfusion-fixed.
Immunostaining is performed on saggital and coronal brain sections using anti-tyrosine hydroxylase […] to quantitate survival and recovery of dopaminergic neurons. In animals treated with MPTP and vehicle, a substantial loss of functional dopaminergic terminals is observed as compared to non-lesioned animals. Lesioned animals receiving test compounds show a significant recovery of TH-stained dopaminergic neurons. This model presents quantitation for the recovery of TH-positive dopaminergic neurons in the striatum of animals receiving the compounds of the present invention. Data for representative control and lesioned animals not receiving the test drugs is also presented against the data from the animals receiving the compounds of the present invention in Table III.

FKBP12, sequence (P62942 whole entry, species assumed): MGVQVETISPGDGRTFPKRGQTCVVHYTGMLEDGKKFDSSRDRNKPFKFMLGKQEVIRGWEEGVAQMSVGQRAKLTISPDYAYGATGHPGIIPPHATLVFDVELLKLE

Ki (FKBP12; numerical, read-out: Ki)	Ki (FKBP12; ranked potency, read-out: Kl)	SMILES	EC50 [1]	% Recovery Tyrosine Hydroxylase [2]
659 nM	> 500 nM	COc1ccc(CCCSC(=O)[C@@H]2CCCCN2S(=O)(=O)c2ccc(C)cc2)cc1 (racemic) [Compound 26, 3-(4-Methoxyphenyl)propyl 1-[(4-methylphenyl)sulfonyl]-2-piperidinecarbothioate]	–	–
82 nM	–	COc1ccc(CCCSC(=O)C2CCCCN2S(=O)(=O)Cc2ccccc2)cc1 (racemic) [Compound 27, 3-(4-Methoxyphenyl)propyl 1-(benzylsulfonyl)-2-piperidinecarbothioate]	–	–
196 nM	51 to 200 nM	COc1ccc(CCCSC(=O)C2CCCCN2S(=O)(=O)c2ccccc2)cc1 (racemic) [Compound 28, 3-(4-Methoxyphenyl)propyl 1-(phenylsulfonyl)-2-piperidinecarbothioate]	–	–
69 nM	51 to 200 nM	Cc1ccc(S(=O)(=O)N2CCCCC2C(=O)SCCCc2ccc(C(F)(F)F)cc2)cc1 (racemic) [Compound 29, 3-[4-(Trifluoromethyl)phenyl]propyl 1-[(4-methylphenyl)sulfonyl]-2-piperidinecarbothioate]	–	–
–	–	O=C(SCCc1ccccc1)C1CCCN1S(=O)(=O)c1ccccc1 (stereo not shown) [Compound 1]	< 1 nM	–
–	–	O=C(SCCc1ccccc1)C1CCCN1S(=O)(=O)Cc1ccccc1 (stereo not shown) [Compound 2]	1 to 50 nM	–
–	–	Cc1ccc(S(=O)(=O)N2CCCC2C(=O)SCCc2ccccc2)cc1 (stereo not shown) [Compound 3]	1 to 50 nM	–
204 nM	201 to 500 nM	COc1ccc(CCCSC(=O)[C@@H]2CCCN2S(=O)(=O)c2ccccc2)cc1 [Compound 4, 3-(4-Methoxyphenyl)propyl (2S)-1-(phenylsulfonyl)-2-pyrrolidinecarbothioate]	51 to 200 nM	42%
22 nM	1 to 50 nM	COc1ccc(CCCSC(=O)[C@@H]2CCCN2S(=O)(=O)Cc2ccccc2)cc1 [Compound 5, 3-(4-Methoxyphenyl)propyl (2S)-1-(benzylsulfonyl)-2-pyrrolidinecarbothioate]	1 to 50 nM	–
145 nM	51 to 200 nM	COc1ccc(CCCSC(=O)[C@@H]2CCCN2S(=O)(=O)c2ccc(C)cc2)cc1 [Compound 6, 3-(4-Methoxyphenyl)propyl (2S)-1-[(4-methylphenyl)sulfonyl]-2-pyrrolidinecarbothioate]	51 to 200 nM	37%
–	–	O=C(SCCC(c1ccccc1)c1ccccc1)C1CCCN1S(=O)(=O)c1ccccc1 (stereo not shown) [Compound 7]	1 to 50 nM	–
–	–	O=C(SCCC(c1ccccc1)c1ccccc1)C1CCCN1S(=O)(=O)Cc1ccccc1 (stereo not shown) [Compound 8]	< 1 nM	–
–	–	O=C(SCCCCc1ccccc1)C1CCCCN1S(=O)(=O)c1ccccc1 (stereo not shown) [Compound 10]	1 to 50 nM	–
–	–	O=C(SCCCCc1ccccc1)C1CCCCN1S(=O)(=O)Cc1ccccc1 (stereo not shown) [Compound 11]	1 to 50 nM	–
–	–	Cc1ccc(S(=O)(=O)N2CCCCC2C(=O)SCCCCc2ccccc2)cc1 (stereo not shown) [Compound 12]	1 to 50 nM	–
–	–	COc1cc(S(=O)(=O)N2CCCCC2C(=O)SCCCCc2ccccc2)cc(OC)c1OC (stereo not shown) [Compound 13]	< 1 nM	–
–	–	O=C(SCCCCc1ccccc1)C1CCCCN1S(=O)(=O)C1CCCCC1 (stereo not shown) [Compound 14]	1 to 50 nM	–
–	–	O=C(SC(CCCc1ccccc1)CCCc1ccccc1)C1CCCCN1S(=O)(=O)c1ccccc1 (stereo not shown) [Compound 15]	< 1 nM	–
–	–	O=C(SC(CCCc1ccccc1)CCCc1ccccc1)C1CCCCN1S(=O)(=O)Cc1ccccc1 (stereo not shown) [Compound 16]	51 to 200 nM	–
730 nM	> 500 nM	CCc1ccc(S(=O)(=O)N2CCC[C@H]2C(=O)SCCc2ccccc2)cc1 [Compound 21, Phenethyl (2S)-1-[(4-ethylphenyl)sulfonyl]-2-pyrrolidinecarbothioate]	–	–
671 nM	> 500 nM	O=C(SCCCc1cccc2ccccc12)[C@@H]1CCCN1S(=O)(=O)Cc1ccccc1 [Compound 24, 3-(1-Naphthyl)propyl (2S)-1-(benzylsulfonyl)-2-pyrrolidinecarbothioate]	–	40%

SMILES	Ki (FKBP12; numerical, read-out: Ki)	Ki (FKBP12; ranked potency, read-out: Kl)	EC50 [1]	% Recovery Tyrosine Hydroxylase [2]
O=C(SCCCc1ccccc1)[C@@H]1CCCN1S(=O)(=O)Cc1ccccc1 [Compound 23, 3-Phenylpropyl (2S)-1-(benzylsulfonyl)-2-pyrrolidinecarbothioate]	–	51 to 200 nM	–	80%
